Results published in patent US20260000754A1, “NANOPARTICLES AS CARRIER-SYSTEM FOR ADJUVANTS/ANTIGENS” (UNIVERSITAT HEIDELBERG, priority 2020, published 2026).

Assays:
DC2.4 cells = assay: MHC I cross presentation of OVA257-264 in DC2.4 cells; type: cell-based, murine; settings: 6 h incubation with 5 μM solution, with or without SiO2—PO3H2; 25-D1.16 antibody, flow cytometry
Procedure: In the experiment, the OVA257-264 presentation efficacy after incubation of 5·10^4 DC2.4 cells with 5 μM solutions of full length protein (OVA=Ovalbumin), N- and C-terminal elongated epitope (OVA247-264A5K, a so called synthetic long peptide (SLP)), N-terminal elongated epitope with a Cathepsin B cleavable sequence (exemplary shown RW-Cit-OVA257-264) or native epitope (OVA 257-264), each with and without nanoparticles, was compared. […] After an incubation time of 6 h, the test substances are removed by washing with phosphate-buffered saline (PBS). In the next step, the cells were incubated with CD16/CD32 antibody in order to block the non-specific binding of the detection antibody to the Fc (Fragment, crystallizable) receptor of the cells. After incubation with 25-D1.16 antibody, the amount of cross-presented OVA257-264 was quantified by flow cytometry.
FIG. 16: OVA257-264 MHC I presentation after 6 h incubation of H2-Kb positive cells with 5 μM solution of native or elongated OVA257-264 epitope or full length OVA protein with or without SiO2—PO3H2. Quantification was carried out by flow cytometry after labeling with 25-D1.16 detection antibody.

[1] = Solubility enhancement of epitopes (solubility in water); type: physicochemical
Text: On the N-terminal site of the enzymatically cleaved linker the addition of polar amino acids can be used to enhance the solubility of the whole peptide. […] The use in a human vaccine is difficult. In animal studies researchers dissolve it in DMSO. The solubility after e.g. subcutaneous injection is questionable: dilution might result in precipitation of large peptide particles, which is very unfavorable for transport to lymphnodes.
According to the invention the epitope […] was enlarged on the N-terminal site with the enzymatic cleavable linker Val-Cit and the cationic solubilizing sequence Lys-Lys-Lys, leading to • KKKV-Cit-[…].
After endosomal and/or cytosolic cleavage by cathepsin B the native HPV 16 E782-90 is released. Also the remaining KKKV-Cit is not immunogenic, due to the fact it's too short to be presented at any MHC I or MHC II.

[2] = Stability measurement in human serum (HEK-Blue hTLR3 cell readout); type: in vitro ADME; settings: 20% human serum, 37° C., 1 μg poly(I:C)/mL
[3] = Stability measurement in bovine serum (HEK-Blue hTLR3 cell readout); type: in vitro ADME; settings: 60 minutes at 37° C., 5, 10 and 20% FBS
Text: HEK-Blue™ hTLR3 Cells are designed to measure the stimulation of […] monitoring the activation of NF-kB. HEK-Blue™hTLR3Cells were obtained by co-transfection of the hTLR3 gene and an optimized secreted embryonic alkaline phosphatase (SEAP) reporter gene placed under the control of an NF-kB and AP-1-inducible promoter intoHEK293 cells. Stimulation with a TLR3 ligand activates NF-kB and AP-1 which induce the production of SEAP. Levels of SEAP can be easily determined with HEK-Blue™ Detection, a cell culture medium that allows for real-time detection of SEAP. The hydrolysis of the substrate by SEAP produces a purple/blue color that can be easily detected with the naked eye or measured with a 96 well plate reader (Invivogen).
The serum was used in concentrations of 5, 10 and 20%. A serum concentration of 20% corresponds quite well to the composition of peripheral lymph.
The poly(I:C) payload at SiO2—Arg in this case was about 2.5%. After exposure to FBS 20 μL of the medium were taken and added to 180 μL HEK-Blue™ hTLR3 cells in HEK-Blue™ Detection medium. This mixture was incubated for 13 hours at 37° C. and the plate was analyzed in a 96 well plate reader (Tecan Reader, Type: Infinite M200 Pro).

Row | Compound | OVA257-264 MHC I presentation (DC2.4 cells) | solubility in water [1] | further results
1 | RW-Cit-OVA257-264 | presented in significant amounts | – | –
2 | CC[C@H](C)[C@H](NC(=O)CNC(=O)[C@H](CC(C)C)NC(=O)[C@@H](NC(=O)CNC(=O)[C@H](CCSC)NC(=O)[C@H](CC(C)C)NC(=O)[C@H](CC(C)C)NC(=O)[C@H](CCCNC(N)=O)NC(=O)[C@@H](NC(=O)[C@H](CCCCN)NC(=O)[C@H](CCCCN)NC(=O)[C@@H](N)CCCCN)C(C)C)[C@@H](C)O)C(=O)N[C@H](C(=O)O)C(C)C | – | excellent | –
3 | SIINFEKL [OVA257-264] | presented in significant amounts | – | –
4 | polyinosinic: polycytidylic acid [poly(I:C)] | – | – | % of initial concentration after 60 minutes [2]: 18%; calculated half-life [2]: 24.2 min; stability in fetal bovine serum [3]: clear signs of degradation at higher serum concentrations
5 | CC[C@H](C)[C@H](NC(=O)CNC(=O)[C@H](CC(C)C)NC(=O)[C@@H](NC(=O)CNC(=O)[C@H](CCSC)NC(=O)[C@H](CC(C)C)NC(=O)[C@@H](N)CC(C)C)[C@@H](C)O)C(=O)N[C@H](C(=O)O)C(C)C | – | very bad | –
